In brackets after ≈: the same amount, converted by molar mass. Entries after “also recorded” stand apart in the source; their conditions may differ.
What was measured:
[1] = system: Burkholderia thailandensis
BpMetAP1 = BpMetAP1 (Burkholderia pseudomallei, UniProt Q63T11)
hMetAP2 = settings: cited from earlier work; for IC50: read-out: hMetAP2 IC50
hMetAP1 = settings: read-out: hMetAP1 IC50; cited from earlier work
[2] = system: B. pseudomallei strain Bp340; assay type: cell-based, Burkholderia pseudomallei
B. pseudomallei 1026b = assay type: cell-based, Burkholderia pseudomallei
[3] = system: Burkholderia thailandensis; assay: microbe, parasite or virus in culture; settings: read-out: minimum inhibitory concentration (MIC)
[4] = system: Burkholderia thailandensis; settings: cited from earlier work
B. pseudomallei = settings: cited from earlier work
[5] = system: clinical B. pseudomallei isolates; settings: cited from earlier work

BpMetAP1, sequence (Q63T11 1-271): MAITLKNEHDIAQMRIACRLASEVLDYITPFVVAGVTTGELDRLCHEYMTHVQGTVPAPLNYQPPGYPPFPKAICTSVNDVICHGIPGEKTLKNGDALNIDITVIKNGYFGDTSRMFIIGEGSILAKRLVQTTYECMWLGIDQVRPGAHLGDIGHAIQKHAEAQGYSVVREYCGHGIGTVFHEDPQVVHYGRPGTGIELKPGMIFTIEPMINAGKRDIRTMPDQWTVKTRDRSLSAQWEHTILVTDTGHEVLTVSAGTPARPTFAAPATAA

## CN1CCN(Cc2cc([N+](=O)[O-])c3cccnc3c2O)CC1 [compound 15]
[1]
  growth inhibition of B. thailandensis (in words): potent growth inhibitors; also recorded: inhibition of cell growth; also recorded: nearly complete cell growth inhibition

## Cc1ccc(CSc2nnc(N)[nH]2)cc1 [compound 16]
BpMetAP1
  BpMetAP1 inhibition potency (in words): low micromolar range

## Oc1c(CN2CCSCC2)cc(Cl)c2cccnc12 [compound 7]
[1]
  growth inhibition of B. thailandensis (in words): inhibited cell growth

## O=[N+]([O-])c1cc(CN2CCOCC2)c(O)c2ncccc12 [compound 13]
BpMetAP1
  BpMetAP1 inhibition potency (in words): decreased potency

## Nc1nnc(SCc2ccc(Cl)cc2Cl)[nH]1 [compound 18]
BpMetAP1
  BpMetAP1 inhibition potency (in words): low micromolar range

## O=S(=O)(O)c1ccc(O)c2ncccc12 [compound 1]
hMetAP2
  IC50: > 15 µM
hMetAP1
  IC50: > 15 µM

## O=[N+]([O-])c1ccc(O)c2ncccc12 [compound 9, 5-nitro-8-hydroxyquinoline]
[2]
  growth inhibition of B. pseudomallei Bp340: complete growth inhibition
B. pseudomallei 1026b
  inhibition of B. pseudomallei 1026b: no difference in inhibition compared to Bp340
BpMetAP1
  BpMetAP1 inhibition potency (in words): Met-AP inhibition
[1]
  growth inhibition of B. thailandensis (in words): potent growth inhibitors; also recorded: inhibition of cell growth
hMetAP2
  activity against human MetAP2 in vitro: nanomolar range
hMetAP1
  IC50: > 15 µM
[3]
  MIC: ~6 µg/mL (≈ 31.6 µM)

## CN(C)Cc1cc([N+](=O)[O-])c2cccnc2c1O [compound 11]
[1]
  growth inhibition of B. thailandensis (in words): potent growth inhibitors; also recorded: inhibition of cell growth

## O=C(O)c1ccc(-c2cc(Cl)ccc2Cl)o1 [compound 23, reference compound]
[1]
  growth inhibition of B. thailandensis (in words): essentially no ability to inhibit bacterial growth

## Nc1nnc(SCc2ccc(F)cc2)[nH]1 [compound 17]
BpMetAP1
  BpMetAP1 inhibition potency (in words): low micromolar range

## O=C(O)c1ccc(-c2ccccc2Cl)o1 [compound 22, reference compound]
[1]
  growth inhibition of B. thailandensis (in words): essentially no ability to inhibit bacterial growth

## Oc1c(CN2CCCCC2)cc(Cl)c2cccnc12 [compound 5]
BpMetAP1
  BpMetAP1 inhibition potency (in words): Met-AP inhibition

## O=C(O)c1cc(Br)ccc1NS(=O)(=O)c1ccc(Cl)cc1 [compound 25]
[1]
  growth inhibition of B. thailandensis (in words): nor the sulfonamide (24 and 25) derivatives demonstrated significant growth inhibition

## O=[N+]([O-])c1cc(CN2CCSCC2)c(O)c2ncccc12 [compound 14]
BpMetAP1
  BpMetAP1 inhibition potency (in words): decreased potency

## Oc1cccc2cccnc12 [compound 3, reference compound]
[1]
  growth inhibition of B. thailandensis (in words): inhibited cell growth
hMetAP1
  IC50: > 15 µM

## O=[N+]([O-])c1cc(CN2CCCCC2)c(O)c2ncccc12 [compound 10]
BpMetAP1
  BpMetAP1 inhibition potency (in words): decreased potency
[1]
  growth inhibition of B. thailandensis (in words): inactive

## NC[C@H]1O[C@H](O[C@H]2[C@H](O)[C@@H](O[C@H]3O[C@H](CO)[C@@H](O)[C@H](N)[C@H]3O)[C@H](N)C[C@@H]2N)[C@H](O)[C@@H](O)[C@@H]1O [Km, kanamycin]
[4]
  killing of B. thailandensis: complete killing
B. pseudomallei
  killing of B. pseudomallei: complete killing

## O=[N+]([O-])c1cc(CN2CCCC2)c(O)c2ncccc12 [compound 12]
[1]
  growth inhibition of B. thailandensis (in words): potent growth inhibitors; also recorded: inhibition of cell growth

## Cc1ccc2cccc(O)c2n1 [compound 2, reference compound]
BpMetAP1
  BpMetAP1 inhibition potency (in words): inactive
[1]
  growth inhibition of B. thailandensis (in words): inhibited cell growth
hMetAP2
  IC50: > 15 µM
hMetAP1
  IC50: > 15 µM

## CC(C)(O/N=C(\C(=O)N[C@@H]1C(=O)N2C(C(=O)[O-])=C(C[n+]3ccccc3)CS[C@H]12)c1csc(N)n1)C(=O)O [ceftazidime]
[5]
  MIC: 1 to 6 µg/mL
